In patent publication EP1658776A1, “Method for producing live food water organisms in the presence of an antibacterial” (priority 2004, dated 2006):

What was measured:
Vibrio sp. [1] = assay: Vibrio reduction by silver combined with berberine during hatching (Example 4, Figure 2); type: cell-based; conditions: berberine 0.1 mg/l to 2.5 mg/l added together with silver 0.1 mg Ag per liter
Method: GSL-cysts were incubated at 2g cysts /l, following standard procedures, i.e.: salinity of 25 g/l, temperature of 30°C. Continuous illumination and air bubbling was provided. Silver nitrate, thiosulphate and berberine were added in different concentrations to the hatching medium. After 24 hours, the hatching percentage was calculated and samples of the hatching medium were taken for determination of Vibrio sp. on TCBS.

gram-positive bacteria = conditions: against gram-positive bacteria; cited from earlier work
[2] = test system: marine heterotrophic bacterial population; assay: Total bacterial count on Marine agar in hatching medium (Example 1); type: cell-based; conditions: after 24 hours; summary of Table 1
Method: (§1) 1000 g commercially available dry cysts from Great Salt Lake (GSL-strain) were sprayed with 20 ml solution to which 2.43g or 2.02g AgNO3 is added and another 1000 g cysts were sprayed with 20 ml to which 14.20g or 11.81g thiosulphate (Na2S2O3.5(H2O)) is added (in a ratio of 4 mol thiosulphate to 1 mol AgNO3) to obtain respectively 1.50 or 1.25 mg Ag/l in the hatching medium, after incubation of 2g treated cysts therein. The cysts were gently mixed for 15-30 minutes while spraying. Both fractions were mixed together in a ratio of (1:1). The cysts were vacuum packed and stored at different temperatures (4°C, 20°C and 30°C). Cysts from the same batch were kept as a control. After 4 weeks they were incubated at 2g (treated) cysts /l, following standard procedures, i.e.: salinity of 25 g/I, temperature of 30°C. Continuous illumination and air bubbling was provided. After 24 hours of incubation, samples of the hatching medium were taken for determination of the total count on Marine agar (MA) and Vibrio sp. on TCBS (specific growth medium for Vibrio sp.). The hatching percentage (percentage of cysts that hatch on the total of full cysts) of the cysts was calculated. Tabel 1: Hatching percentage (HP) of cysts, number of colony forming units (cfu) per ml of hatching medium on MA and on TCBS after 24h incubation of Artemia cysts of control cysts and cysts with different amounts of AgNO3 (expressed as mg Ag/l hatching medium). Each value is the average of three counts.

Vibrio sp. [3] = assay: Vibrio count on TCBS in hatching medium (Example 1); type: cell-based; conditions: after 24 hours; summary of Table 1
Method: as §1

In the case of `COc1ccc2cc3[n+](cc2c1OC)CCc1cc2c(cc1-3)OCO2` [berberine, reference compound], the “reduction in Vibrio species” value (Vibrio sp. [1]) is given as “some reduction in Vibrio species is observed” and the inhibitory activity (gram-positive bacteria) is given as 50 to 400 mg/L.

For “silver thiosulphate [silver nitrate and thiosulphate]”, the “total counts on Marine Agar” value [2] was “not affected” and the “TCBS (Vibrio sp.) in the medium with treated cysts” value (Vibrio sp. [3]) was < 300 cfu/ml.
